Data on 37 compounds can be found in patent US9902696B2, “1,4-substituted piperidine derivatives” (Cephalon, Inc., priority 2015, dated 2018).

Counter-ions that a name gives are not always drawn.

T1 sequence (P49327 whole entry): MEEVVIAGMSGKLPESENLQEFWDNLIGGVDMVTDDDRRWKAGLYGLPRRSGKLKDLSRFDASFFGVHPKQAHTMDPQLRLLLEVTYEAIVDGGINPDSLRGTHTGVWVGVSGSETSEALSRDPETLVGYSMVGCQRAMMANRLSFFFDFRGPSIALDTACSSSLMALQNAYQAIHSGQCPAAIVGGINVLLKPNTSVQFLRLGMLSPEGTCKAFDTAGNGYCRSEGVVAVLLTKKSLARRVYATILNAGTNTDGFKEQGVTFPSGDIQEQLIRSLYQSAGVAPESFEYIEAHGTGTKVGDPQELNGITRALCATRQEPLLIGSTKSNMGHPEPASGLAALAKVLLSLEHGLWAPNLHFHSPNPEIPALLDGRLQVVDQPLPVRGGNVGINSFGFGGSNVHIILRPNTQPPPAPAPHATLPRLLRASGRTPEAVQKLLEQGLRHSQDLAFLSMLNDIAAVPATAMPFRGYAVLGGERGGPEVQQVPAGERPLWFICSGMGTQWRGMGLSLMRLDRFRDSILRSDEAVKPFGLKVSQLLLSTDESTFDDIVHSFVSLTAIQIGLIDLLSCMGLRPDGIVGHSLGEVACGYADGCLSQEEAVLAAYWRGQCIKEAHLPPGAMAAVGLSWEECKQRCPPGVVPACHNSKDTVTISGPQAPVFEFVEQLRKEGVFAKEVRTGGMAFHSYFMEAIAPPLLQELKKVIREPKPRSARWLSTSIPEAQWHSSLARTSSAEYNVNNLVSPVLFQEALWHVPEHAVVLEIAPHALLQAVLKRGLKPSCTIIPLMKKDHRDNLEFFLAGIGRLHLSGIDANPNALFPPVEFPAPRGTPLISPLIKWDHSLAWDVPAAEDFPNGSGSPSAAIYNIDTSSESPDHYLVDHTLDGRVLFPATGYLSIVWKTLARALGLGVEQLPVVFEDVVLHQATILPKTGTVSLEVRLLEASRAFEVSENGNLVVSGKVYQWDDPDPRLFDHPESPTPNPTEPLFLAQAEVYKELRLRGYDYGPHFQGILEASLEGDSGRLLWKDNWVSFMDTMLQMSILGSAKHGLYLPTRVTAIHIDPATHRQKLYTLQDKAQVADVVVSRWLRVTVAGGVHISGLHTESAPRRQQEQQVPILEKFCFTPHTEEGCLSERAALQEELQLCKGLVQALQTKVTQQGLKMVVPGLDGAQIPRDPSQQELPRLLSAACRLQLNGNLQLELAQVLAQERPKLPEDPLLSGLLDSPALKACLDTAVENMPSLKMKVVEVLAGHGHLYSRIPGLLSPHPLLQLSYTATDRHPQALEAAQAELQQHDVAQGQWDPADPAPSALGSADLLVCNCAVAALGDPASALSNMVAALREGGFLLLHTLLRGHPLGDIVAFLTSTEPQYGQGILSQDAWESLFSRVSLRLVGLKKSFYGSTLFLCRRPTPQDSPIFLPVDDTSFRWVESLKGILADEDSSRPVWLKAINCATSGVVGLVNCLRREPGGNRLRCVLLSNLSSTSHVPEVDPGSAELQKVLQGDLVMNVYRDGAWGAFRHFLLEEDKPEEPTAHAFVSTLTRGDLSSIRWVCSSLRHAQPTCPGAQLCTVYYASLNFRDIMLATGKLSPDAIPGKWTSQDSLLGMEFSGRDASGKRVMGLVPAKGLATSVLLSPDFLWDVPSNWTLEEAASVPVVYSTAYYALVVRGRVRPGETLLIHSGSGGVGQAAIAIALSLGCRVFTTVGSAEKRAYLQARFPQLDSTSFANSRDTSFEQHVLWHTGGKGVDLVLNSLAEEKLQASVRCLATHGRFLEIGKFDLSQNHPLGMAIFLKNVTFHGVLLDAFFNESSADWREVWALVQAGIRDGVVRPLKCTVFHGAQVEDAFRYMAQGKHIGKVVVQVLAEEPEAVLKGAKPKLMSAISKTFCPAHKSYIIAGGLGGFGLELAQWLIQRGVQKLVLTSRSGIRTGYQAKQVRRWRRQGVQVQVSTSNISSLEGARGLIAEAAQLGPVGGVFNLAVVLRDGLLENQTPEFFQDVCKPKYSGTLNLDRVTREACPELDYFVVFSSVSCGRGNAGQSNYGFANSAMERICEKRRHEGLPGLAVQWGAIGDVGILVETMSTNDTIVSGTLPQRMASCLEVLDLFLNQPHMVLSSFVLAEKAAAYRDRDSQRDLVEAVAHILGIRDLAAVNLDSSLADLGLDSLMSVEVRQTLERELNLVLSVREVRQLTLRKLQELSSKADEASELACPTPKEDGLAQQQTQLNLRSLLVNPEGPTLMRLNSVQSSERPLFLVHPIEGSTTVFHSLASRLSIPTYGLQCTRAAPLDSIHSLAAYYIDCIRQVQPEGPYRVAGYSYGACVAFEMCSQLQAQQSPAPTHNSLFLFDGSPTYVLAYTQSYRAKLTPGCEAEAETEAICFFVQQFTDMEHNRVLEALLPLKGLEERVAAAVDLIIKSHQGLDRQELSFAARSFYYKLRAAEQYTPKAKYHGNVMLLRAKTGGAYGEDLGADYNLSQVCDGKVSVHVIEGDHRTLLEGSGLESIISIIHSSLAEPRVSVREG

This assay addresses T1, recombinant human baculovirus-expressed GST-tagged FASN (Homo sapiens, UniProt P49327).
T1 construct: GST
Nature of the assay: FASN enzyme activity assay, fluorescence-based detection of CoA with CPM. In kind it is biochemical. The settings on record: 5 nM FASN, 150 μM NADPH, 10 μM acetyl-CoA, 25 μM malonyl-CoA, 90 minutes incubation; read-out: IC50 data for Compounds of Formulae I-V/V(a): Activity. The method, boiled down:
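CoA product reacted with thiol-reactive CPM (diluted to 50 μM in 70% ethanol), read at 390/530 nm after 30 min. Preceding reaction: 90 min, 5 nM recombinant GST-FASN, 150 μM NADPH, 10 μM acetyl-CoA, 25 μM malonyl-CoA, pH 7.5 HEPES, 0.5% DMSO. IC50s fitted by nonlinear sigmoidal regression.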
Regarding `Cc1c(-c2ccc(OC3CCN(C(=O)C4CC(F)(F)CO4)CC3)cc2)ccc2cccnc12` (stereo not shown) [Example 164], the IC50 was 100 to 999 nM.
As for `Cc1nccc2cc(-c3ccc(OC4CCN(C(=O)C5CC(F)(F)CO5)CC4)cc3)ccc12` (stereo not shown) [Example 165], the IC50 is 100 to 999 nM.
Turning to `O=C1COC(C(=O)N2CCC(Oc3ccc(-c4cnc5ccccc5c4)cc3)CC2)C1` (stereo not shown) [Example 166, 5-[4-(4-Quinolin-3-yl-phenoxy)-piperidine-1-carbonyl]dihydrofuran-3-one], the IC50 lay within 1000 to 10000 nM.
As to `CCOc1c(-c2ccc(OC3CCN(C(=O)CC)CC3)cc2)ccc2cccnc12` [Example 167, 1-{4-[4-(8-Ethoxyquinolin-7-yl)-phenoxy]-piperidin-1-yl}-propan-1-one, HCl], the IC50 was in the range of 1 to 99 nM.
As to `CCOc1c(-c2ccc(OC3CCN(C(=O)C4CC4)CC3)cc2)ccc2cccnc12` [Example 168, Cyclopropyl-{4-[4-(8-ethoxyquinolin-7-yl)-phenoxy]-piperidin-1-yl}-methanone, HCl], the IC50 was 100 to 999 nM.
To `CCC(=O)N1CCC(Oc2ccc(-c3ccc4cccnc4c3OC(C)C)cc2)CC1` [Example 169, 1-{4-[4-(8-Isopropoxyquinolin-7-yl)-phenoxy]-piperidin-1-yl}-propan-1-one, HCl] belongs 100 to 999 nM; to `CC(C)Oc1c(-c2ccc(OC3CCN(C(=O)C4CC4)CC3)cc2)ccc2cccnc12` [Example 170, Cyclopropyl-{4-[4-(8-isopropoxyquinolin-7-yl)-phenoxy]-piperidin-1-yl}-methanone, HCl], 100 to 999 nM; to `CCC(=O)N1CCC(Oc2ccc(-c3ccc4cccnc4c3OCCN3CCOCC3)cc2)CC1` [Example 171, 1-(4-{4-[8-(2-Morpholin-4-yl-ethoxy)-quinolin-7-yl]-phenoxy}-piperidin-1-yl)-propan-1-one, 2HCl], 1000 to 10000 nM.
Turning to `O=C(C1CC1)N1CCC(Oc2ccc(-c3ccc4cccnc4c3OCCN3CCOCC3)cc2)CC1` [Example 172, Cyclopropyl-(4-{4-[8-(2-morpholin-4-yl-ethoxy)-quinolin-7-yl]-phenoxyl}-piperidin-1-yl)-methanone, 2HCl], the IC50 was in the range of 1000 to 10000 nM.
As for `CCC(=O)N1CCC(Oc2ccc(-c3ccc4cccnc4c3OCCN3CCCC3)cc2)CC1` [Example 173, 1-(4-{4-[8-(2-Pyrrolidin-1-yl-ethoxy)-quinolin-7-yl]-phenoxy}-piperidin-1-yl)-propan-1-one, HCl], the IC50 was 1000 to 10000 nM.
As for `O=C(C1CC1)N1CCC(Oc2ccc(-c3ccc4cccnc4c3OCCN3CCCC3)cc2)CC1` [Example 174, Cyclopropyl-(4-{4-[8-(2-pyrrolidin-1-yl-ethoxy)-quinolin-7-yl]-phenoxy}-piperidin-1-yl)-methanone, HCl], the IC50 lay in the range of 1000 to 10000 nM.
With `CCC(=O)N1CCC(Oc2ccc(-c3ccc4cccnc4c3OCCCN3CCCC3)cc2)CC1` [Example 175, 1-(4-{4-[8-(3-Pyrrolidin-1-yl-propoxy)-quinolin-7-yl]-phenoxy}-piperidin-1-yl)-propan-1-one, HCl], the IC50 was in the range of 1000 to 10000 nM.
Take `O=C(C1CC1)N1CCC(Oc2ccc(-c3ccc4cccnc4c3OCCCN3CCCC3)cc2)CC1` [Example 176, Cyclopropyl-(4-{4-[8-(3-pyrrolidin-1-yl-propoxy)-quinolin-7-yl]-phenoxy}-piperidin-1-yl)-methanone, HCl]: the IC50 is 1000 to 10000 nM.
To `CCC(=O)N1CCC(Oc2ccc(-c3ccc4cccnc4c3OCCN3CCN(C)CC3)cc2)CC1` [Example 177, 1-[4-[4-[8-[2-(4-Methylpiperazin-1-yl)ethoxy]-7-quinolyl]phenoxy]-1-piperidyl]propan-1-one, HCl] belongs 1000 to 10000 nM; to `CCC(=O)N1CCC(Oc2ccc(-c3ccc4cccnc4c3OCCOC)cc2)CC1` [Example 178, 1-[4-[4-[8-(2-Methoxyethoxy)-7-quinolyl]phenoxy]-1-piperidyl]propan-1-one, HCl], 100 to 999 nM; to `CCC(=O)N1CCC(Oc2ccc(-c3ccc4cccnc4c3OCCCOC)cc2)CC1` [Example 179, 1-[4-[4-[8-(3-Methoxypropoxy)-7-quinolyl]phenoxy]-1-piperidyl]propan-1-one, HCl], 100 to 999 nM.
Consider `CC(C)Oc1c(-c2ccc(OC3CCN(C(=O)[C@H]4CCCO4)CC3)cc2)ccc2cccnc12` [Example 180, {4-[4-(8-Isopropoxyquinolin-7-yl)-phenoxy]-piperidin-1-yl}-(R)-tetrahydrofuran-2-yl-methanone, HCl], for which the IC50 lay within 1 to 99 nM.
`CCOc1c(-c2ccc(OC3CCN(C(=O)[C@H]4CCCO4)CC3)cc2)ccc2cccnc12` [Example 181, {4-[4-(8-Ethoxyquinolin-7-yl)-phenoxy]-piperidin-1-yl}-(R)-tetrahydro-furan-2-yl-methanone, HCl]: the IC50 lay in the range of 1 to 99 nM.
With `O=C([C@H]1CCCO1)N1CCC(Oc2ccc(-c3ccc4cccnc4c3OCCN3CCOCC3)cc2)CC1` [Example 182, (4-{4-[8-(2-Morpholin-4-yl-ethoxy)-quinolin-7-yl]-phenoxy}-piperidin-1-yl)-(R)-tetrahydrofuran-2-yl-methanone, 2HCl], the IC50 was 100 to 999 nM.
Take `O=C([C@H]1CCCO1)N1CCC(Oc2ccc(-c3ccc4cccnc4c3OCCN3CCCC3)cc2)CC1` [Example 183]: the IC50 fell in the range of 1000 to 10000 nM.
As for `O=C([C@H]1CCCO1)N1CCC(Oc2ccc(-c3ccc4cccnc4c3OCCCN3CCCC3)cc2)CC1` [Example 184, (4-{4-[8-(3-Pyrrolidin-1-yl-propoxy)-quinolin-7-yl]-phenoxy}-piperidin-1-yl)-(R)-tetrahydrofuran-2-yl-methanone, HCl], the IC50 is 100 to 999 nM.
Turning to `CN1CCN(CCOc2c(-c3ccc(OC4CCN(C(=O)[C@H]5CCCO5)CC4)cc3)ccc3cccnc23)CC1` [Example 185, [4-[4-[8-[2-(4-Methylpiperazin-1-yl)ethoxy]-7-quinolyl]phenoxy]-1-piperidyl]-[(2R)-tetrahydrofuran-2-yl]methanone, HCl], the IC50 lay in the range of 100 to 999 nM.
On to `COCCOc1c(-c2ccc(OC3CCN(C(=O)[C@H]4CCCO4)CC3)cc2)ccc2cccnc12` [Example 186, [4-[4-[8-(2-Methoxyethoxy)-7-quinolyl]phenoxy]-1-piperidyl]-[(2R)-tetrahydrofuran-2-yl]methanone, HCl], for which the IC50 was in the range of 1 to 99 nM.
As to `COCCCOc1c(-c2ccc(OC3CCN(C(=O)[C@H]4CCCO4)CC3)cc2)ccc2cccnc12` [Example 187, [4-[4-[8-(3-Methoxypropoxy)-7-quinolyl]phenoxy]-1-piperidyl]-[(2R)-tetrahydrofuran-2-yl]methanone, HCl], the IC50 lay in the range of 1 to 99 nM.
Regarding `CCC(=O)N1CCC(Oc2ccc(-c3ccc4cccnc4c3O)cc2)CC1` [Example 188, 1-{4-[4-(8-Hydroxyquinolin-7-yl)-phenoxy]-piperidin-1-yl}-propan-1-one, HCl], the IC50 was in the range of 100 to 999 nM.
Regarding `O=C(C1CC1)N1CCC(Oc2ccc(-c3ccc4cccnc4c3O)cc2)CC1` [Example 189, Cyclopropyl-{4-[4-(8-hydroxyquinolin-7-yl)-phenoxy]-piperidin-1-yl}-methanone, HCl], the IC50 fell in the range of 100 to 999 nM.
Consider `O=C([C@H]1CCCO1)N1CCC(Oc2ccc(-c3ccc4cccnc4c3O)cc2)CC1` [Example 190, {4-[4-(8-Hydroxyquinolin-7-yl)-phenoxy]-piperidin-1-yl}-(R)-tetrahydro-furan-2-yl-methanone, HCl], for which the IC50 fell in the range of 1 to 99 nM.
In the case of `CC(C)C(=O)N1CCC(Oc2ccc(-c3cnc4ccccc4c3)cc2Cl)CC1` [Example 192, 1-[4-(2-Chloro-4-quinolin-3-yl-phenoxy)-piperidin-1-yl]-2-methyl-propan-1-one], the IC50 fell in the range of 1000 to 10000 nM.
Turning to `O=C(C1CC1)N1CCC(Oc2ccc(-c3cnc4ccccc4c3)cc2Cl)CC1` [Example 193, [4-(2-Chloro-4-quinolin-3-yl-phenoxy)-piperidin-1-yl]-cyclopropyl-methanone], the IC50 lay within 1000 to 10000 nM.
Take `CCC(=O)N1CCC(Oc2ccc(-c3ccc4cccnc4c3)cc2Cl)CC1` [Example 194, 1-[4-(2-Chloro-4-quinolin-7-yl-phenoxy)-piperidin-1-yl]-propan-1-one]: the IC50 is 1000 to 10000 nM.
`CC(C)C(=O)N1CCC(Oc2ccc(-c3ccc4cccnc4c3)cc2Cl)CC1` [Example 195, 1-[4-(2-Chloro-4-quinolin-7-yl-phenoxy)-piperidin-1-yl]-2-methyl-propan-1-one]: the IC50 lay within 1000 to 10000 nM.
As to `CCC(=O)N1CCC(Oc2ccc(-c3cnc4ccccc4c3)cc2OC)CC1` [Example 196, 1-[4-(2-Methoxy-4-quinolin-3-yl-phenoxy)-piperidin-1-yl]-propan-1-one], the IC50 lay within 1000 to 10000 nM.
As for `COc1cc(-c2cnc3ccccc3c2)ccc1OC1CCN(C(=O)C(C)C)CC1` [Example 197, 1-[4-(2-Methoxy-4-quinolin-3-yl-phenoxy)-piperidin-1-yl]-2-methyl-propan-1-one], the figure is 1000 to 10000 nM.
On to `COc1cc(-c2cnc3ccccc3c2)ccc1OC1CCN(C(=O)C2CC2)CC1` [Example 198, Cyclopropyl-[4-(2-methoxy-4-quinolin-3-yl-phenoxy)-piperidin-1-yl]-methanone], for which the IC50 was 1000 to 10000 nM.
In the case of `CCC(=O)N1CCC(Oc2ccc(-c3ccc4cccnc4c3)cc2OC)CC1` [Example 199, 1-[4-(2-Methoxy-4-quinolin-7-yl-phenoxy)-piperidin-1-yl]-propan-1-one], the IC50 lay within 1000 to 10000 nM.
On to `CCC(=O)N1CCC(Oc2ccc(-c3cnc4ccccc4c3)c(F)c2)CC1` [Example 200, 1-[4-(3-Fluoro-4-quinolin-3-yl-phenoxy)-piperidin-1-yl]-propan-1-one], for which the IC50 fell in the range of 1 to 99 nM.
For the compound `O=C(C1CC1)N1CCC(Oc2ccc(-c3cnc4ccccc4c3)c(F)c2)CC1` [Example 202, Cyclopropyl-[4-(3-fluoro-4-quinolin-3-yl-phenoxy)-piperidin-1-yl]-methanone], the IC50 fell in the range of 1 to 99 nM.
